How the values were obtained:
Botrytis cinerea = assay: Botrytis test (bean)/protective; assay type: in vivo; settings: 48 h, bean plants, protective, application rate 500 g/ha, evaluation 2 days after inoculation, read-out: Efficacy in %
Experimental: (§1) To produce a suitable preparation of active compound, 1 part by weight of active compound is mixed with the stated amounts of solvents and emulsifier, and the concentrate is diluted with water to the desired concentration.
To test for protective activity, young plants are sprayed with the preparation of active compound at the stated application rate. After the spray coating has dried on, 2 small pieces of agar colonized by Botrytis cinerea are placed onto each leaf. The inoculated plants are placed in a dark chamber at about 20° C. and 100% relative atmospheric humidity.
2 days after the inoculation, the size of the infected areas on the leaves is evaluated. 0% means an efficacy which corresponds to that of the control, whereas an efficacy of 100% means that no infection is observed.

[1] = logP determination by HPLC on reverse-phase column (C 18), acidic range pH 2.3; assay type: physicochemical; settings: for chromatographic logP: reverse-phase HPLC column (C 18)
Experimental: The logP values given in Table 1 were determined with EEC Directive 79/831 Annex V.A8 by HPLC (High Performance Liquid Chromatography) on a reverse-phase column (C 18). Temperature: 43° C. Mobile phases for the determination in the acidic range (pH 2.3): 0.1% aqueous phosphoric acid, acetonitrile; linear gradient from 10% acetonitrile to 90% acetonitrile. Calibration was carried out using unbranched alkan-2-ones (having 3 to 16 carbon atoms) with known logP values (determination of the logP values by the retention times using linear interpolation between two successive alkanones).

[2] = tested on: apple scab pathogen Venturia inaequalis; assay: Venturia test (apple)/protective; assay type: in vivo; settings: apple plants, protective; application rate 100 g/ha; evaluation 10 days after inoculation
Experimental: as §1
To test for protective activity, young plants are sprayed with the preparation of active compound at the stated application rate. After the spray coating has dried on, the plants are inoculated with an aqueous conidia suspension of the apple scab pathogen Venturia inaequalis and then remain in an incubation cabin at about 20° C. and 100% relative atmospheric humidity for 1 day.
The plants are then placed in a greenhouse at about 21° C. and a relative atmospheric humidity of about 90%.
(§2) Evaluation is carried out 10 days after the inoculation. 0% means an efficacy which corresponds to that of the control, whereas an efficacy of 100% means that no infection is observed.

Puccinia recondita = assay: Puccinia test (wheat)/protective; assay type: in vivo; settings: 240 h, wheat plants, protective, application rate 500 g/ha, evaluation 10 days after inoculation, read-out: Efficacy in %
Experimental: (§3) To produce a suitable preparation of active compound, 1 part by weight of active compound is mixed with the stated amounts of solvent and emulsifier, and the concentrate is diluted with water to the desired concentration.
To test for protective activity, young plants are inoculated with a spore suspension of Puccinia recondita in a 0.1% strength aqueous agar solution. After the spray coating has dried on, the plants are sprayed with the preparation of active compound at the stated application rate. The plants remain in an incubation cabin at 20° C. and 100% relative atmospheric humidity for 24 hours.
The plants are then placed in a greenhouse at a temperature of about 20° C. and a relative atmospheric humidity of 80% to promote the development of rust pustules.
as §2

Alternaria solani = assay: Alternaria test (tomato)/protective; assay type: in vivo; settings: tomato plants, protective; application rate 750 g/ha; evaluation 7 days after inoculation
Experimental: as §3
To test for protective activity, young tomato plants are sprayed with the preparation of active compound at the stated application rate. 1 day after the treatment, the plants are inoculated with a spore suspension of Alternaria solani and then remain at 100% relative atmospheric humidity and 20° C. for 24 hours. The plants then remain at 96% relative atmospheric humidity and a temperature of 20° C.
Evaluation is carried out 7 days after the inoculation. 0% means an efficacy which corresponds to that of the control, whereas an efficacy of 100% means that no infection is observed.

[3] = HPLC, C 18 reverse-phase, 43° C.

SMILES	logP (pH 2.3) [1, 3]	other results
O=C(Nc1ccccc1-c1ccc(/C=N\OCC2CC2)cc1)c1cccnc1Cl [Compound 3]	–	pest or weed control at 500 g/ha (Botrytis cinerea): 95%; chromatographic logP [1, 3]: 3.57
Cn1cc(C(=O)Nc2ccccc2-c2ccc(/C=N\OCC3CC3)cc2)c(C(F)(F)F)n1 [Compound 4]	–	chromatographic logP [1, 3]: 3.77; Efficacy in % [2]: 91%
Cn1cc(C(=O)Nc2ccccc2-c2ccc(/C=N\OCC3CC3)cc2)c(C(F)F)n1 [Compound 7]	–	pest or weed control at 500 g/ha (Botrytis cinerea): 96%; chromatographic logP [1, 3]: 3.53; Efficacy in % [2]: 100%; pest or weed control at 500 g/ha (Puccinia recondita): 100%
Cc1nc(C(F)F)c(C(=O)Nc2ccccc2-c2ccc(/C=N\OCC3CC3)cc2)s1 [Compound 8]	–	pest or weed control at 500 g/ha (Botrytis cinerea): 85%; chromatographic logP [1, 3]: 3.87; Efficacy in % [2]: 100%
C=CCO/N=C/c1ccc(-c2ccccc2NC(=O)c2sc(C)nc2C(F)F)cc1 [Compound 9, N-[4′-(allyloxyimino-methyl)-biphenyl-2-yl]-4-difluoromethyl-2-methylthiazole-5-carboxamide]	–	pest or weed control at 500 g/ha (Botrytis cinerea): 95%; chromatographic logP [1, 3]: 3.65; Efficacy in % [2]: 100%
C=CCO/N=C\c1ccc(-c2ccccc2NC(=O)c2cn(C)nc2C(F)F)cc1 [Compound 10]	–	pest or weed control at 500 g/ha (Botrytis cinerea): 95%; chromatographic logP [1, 3]: 3.32; Efficacy in % [2]: 100%; pest or weed control at 500 g/ha (Puccinia recondita): 100%
C=CCO/N=C\c1ccc(-c2ccccc2NC(=O)c2cn(C)nc2C(F)(F)F)cc1 [Compound 11]	–	chromatographic logP [1, 3]: 3.53; Efficacy in % (Alternaria solani): 100%
C=CCO/N=C(\C)c1ccc(-c2ccccc2NC(=O)c2c(C)nn(C)c2F)cc1 [Compound 17, N-(4′-{1-(allyloxyimino)-ethyl}-biphenyl-2-yl)-5-fluoro-1,3-dimethyl-1H-pyrazole-4-carboxamide]	–	chromatographic logP [1]: 3.8
C=C(C)CO/N=C(/C)c1ccc(-c2ccccc2NC(=O)c2c(C)nn(C)c2F)cc1 [Compound 36]	4.18	–
CC#CCO/N=C(/C)c1ccc(-c2ccccc2NC(=O)c2c(C)nn(C)c2F)cc1 [Compound 37]	3.63	–
C=CCO/N=C(/C)c1ccc(-c2ccccc2NC(=O)c2ccoc2C)cc1 [Compound 38]	4.14	–
C=CCO/N=C(/C)c1ccc(-c2ccccc2NC(=O)C2=C(C)OCCS2)cc1 [Compound 39]	4.38	–
CC#CCO/N=C(/C)c1ccc(-c2ccccc2NC(=O)c2cn(C)nc2C(F)(F)F)cc1 [Compound 40]	–	chromatographic logP [1, 3]: 3.67; pest or weed control at 500 g/ha (Puccinia recondita): 100%
CC#CCO/N=C(/C)c1ccc(-c2ccccc2NC(=O)c2cccnc2Cl)cc1 [Compound 41]	3.48	–
C=CC(C)O/N=C(/C)c1ccc(-c2ccccc2NC(=O)c2cccnc2Cl)cc1 (stereo not shown) [Compound 42]	2.89	–
C=C(C)CO/N=C(/C)c1ccc(-c2ccccc2NC(=O)c2sc(C)nc2C(F)(F)F)cc1 [Compound 44]	3.49	–
C=CC(C)O/N=C(/C)c1ccc(-c2ccccc2NC(=O)c2cn(C)nc2C(F)(F)F)cc1 (stereo not shown) [Compound 46]	4.15	–
C=CC(C)O/N=C(/C)c1ccc(-c2ccccc2NC(=O)c2ccoc2C)cc1 (stereo not shown) [Compound 47]	4.52	–

SMILES	logP (pH 2.3) [1, 3]	other results
C=C(C)CO/N=C(/C)c1ccc(-c2ccccc2NC(=O)c2cn(C)nc2C(F)(F)F)cc1 [Compound 48]	4.14	–
CC#CCO/N=C(/C)c1ccc(-c2ccccc2NC(=O)c2ccoc2C)cc1 [Compound 50]	3.95	–
C=C(C)CO/N=C(/C)c1ccc(-c2ccccc2NC(=O)c2ccoc2C)cc1 [Compound 51]	4.51	–
C=C(C)CO/N=C(/C)c1ccc(-c2ccccc2NC(=O)c2cn(C)nc2C)cc1 [Compound 52]	3.52	–
C=CC(C)O/N=C(/C)c1ccc(-c2ccccc2NC(=O)c2cn(C)nc2C)cc1 (stereo not shown) [Compound 53]	3.53	–
C/C(=N\OCC=C(Cl)Cl)c1ccc(-c2ccccc2NC(=O)c2cn(C)nc2C)cc1 [Compound 54, N-(4′-{1-[3,3-dichloroallyloxyimino]ethyl}biphenyl-2-yl)-1,3-dimethyl-1H-pyrazole-4-carboxamide]	–	chromatographic logP [1]: 3.97
CC#CCO/N=C(/C)c1ccc(-c2ccccc2NC(=O)c2cn(C)nc2C)cc1 [Compound 55]	–	chromatographic logP [1, 3]: 3.06; pest or weed control at 500 g/ha (Puccinia recondita): 100%
C=CC(C)O/N=C(/C)c1ccc(-c2ccccc2NC(=O)c2cn(C)cc2C(F)(F)F)cc1 (stereo not shown) [Compound 57]	4.41	–
C=C(C)CO/N=C(/C)c1ccc(-c2ccccc2NC(=O)c2ccccc2C(F)(F)F)cc1 [Compound 58]	4.64	–
C=CC(C)O/N=C(/C)c1ccc(-c2ccccc2NC(=O)c2ccccc2C(F)(F)F)cc1 (stereo not shown) [Compound 59]	4.65	–
C=C(C)CO/N=C(/C)c1ccc(-c2ccccc2NC(=O)c2cccnc2Cl)cc1 [Compound 60]	3.95	–
C/C(=N/OCC=C(Cl)Cl)c1ccc(-c2ccccc2NC(=O)c2ccoc2C)cc1 [Compound 61]	4.98	–
C/C(=N/OCC=C(Cl)Cl)c1ccc(-c2ccccc2NC(=O)c2sc(C)nc2C(F)(F)F)cc1 [Compound 62]	3.81	–
C/C(=N/OCC=C(Cl)Cl)c1ccc(-c2ccccc2NC(=O)c2cccnc2Cl)cc1 [Compound 63, 2-chloro-N-{4′-[1-(3,3-dichloroallyloxyimino)ethyl]-biphenyl-2-yl}nicotinamide]	–	chromatographic logP [1]: 4.43
C#CCO/N=C(/C)c1ccc(-c2ccccc2NC(=O)c2sc(C)nc2C(F)F)cc1 [Compound 69]	–	chromatographic logP [1, 3]: 3.45; pest or weed control at 500 g/ha (Puccinia recondita): 100%
C#CCO/N=C(/C)c1ccc(-c2ccccc2NC(=O)c2cn(C)nc2C(F)F)cc1 [Compound 72]	–	chromatographic logP [1, 3]: 3.14; pest or weed control at 500 g/ha (Puccinia recondita): 100%
CC(=O)c1ccc(-c2ccccc2NC(=O)c2cccnc2Cl)cc1 [VIII-1, N-(4′-acetyl-biphenyl-2-yl)-2-chloronicotinamide]	–	chromatographic logP [1]: 2.12
CC(=O)c1ccc(-c2ccccc2N)cc1 [XIV-1, 1-(2′-aminobiphenyl-4-yl)ethanone]	–	chromatographic logP [1]: 1.8

Continued, in another order:

logP (pH 2.3) [1, 3]	SMILES	other results
3.72	C#CCO/N=C(\C)c1ccc(-c2ccccc2NC(=O)c2sc(C)nc2C(F)(F)F)cc1 [Compound 67]	–
3.16	C#CCO/N=C(\C)c1ccc(-c2ccccc2NC(=O)c2cccnc2Cl)cc1 [Compound 68]	–
3.36	C#CCO/N=C(\C)c1ccc(-c2ccccc2NC(=O)c2cn(C)nc2C(F)(F)F)cc1 [Compound 70]	–
3.27	C#CCO/N=C(\C)c1ccc(-c2ccccc2NC(=O)c2c(C)nn(C)c2F)cc1 [Compound 71]	–
3.83	C#CCO/N=C(\C)c1ccc(-c2ccccc2NC(=O)c2ccccc2C(F)(F)F)cc1 [Compound 73]	–
3.81	C#CCO/N=C(\C)c1ccc(-c2ccccc2NC(=O)C2=C(C)OCCS2)cc1 [Compound 74]	–
3.6	C#CCO/N=C(\C)c1ccc(-c2ccccc2NC(=O)c2cn(C)cc2C(F)(F)F)cc1 [Compound 75]	–
3.59	C#CCO/N=C(\C)c1ccc(-c2ccccc2NC(=O)c2ccoc2C)cc1 [Compound 77]	–
2.75	C#CCO/N=C(\C)c1ccc(-c2ccccc2NC(=O)c2cn(C)nc2C)cc1 [Compound 78]	–
3.81	C#CCO/N=C(\C)c1ccc(-c2ccccc2NC(=O)c2ccccc2I)cc1 [Compound 79]	–
3.74	C#CCO/N=C(\C)c1ccc(-c2ccccc2NC(=O)c2ccccc2Br)cc1 [Compound 80]	–
3.73	C#CCO/N=C(\C)c1ccc(-c2ccccc2NC(=O)c2ccccc2Cl)cc1 [Compound 81]	–
2.92	C#CCO/N=C/c1ccc(-c2ccccc2NC(=O)c2cccnc2Cl)cc1 [Compound 82]	–
3.48	C#CCO/N=C/c1ccc(-c2ccccc2NC(=O)c2sc(C)nc2C(F)(F)F)cc1 [Compound 83]	–

Source: patent publication US7728019B2, “Biphenylcarboxamides” (priority 2002, dated 2010)
